# Results reported in patent publication US20140031309A1, “Beta-L-N4 Hydroxycytosine Deoxynucleosides and their use as Pharmaceutical Agents in the Prophylaxis or Therapy of Viral Diseases” (MAX-DELBRUECK-CENTRUM FUER MOLEKULARE MEDIZIN, priority 2004, published 2014).
# Several values for one entry are separate records, joined by “and”; a condition that tells them apart may be missing. Equal entries are not always repeated. Where two headings read alike, the source gives them in different places.
# Columns and labels:
# [1] = system: HL-60 cells; test: Cytotoxicity, inhibition of proliferation of HL-60 cells; type: cell-based, human; settings: for CD50, concentration producing 50% inhibition of cell proliferation: two days incubation; for antiproliferative activity: in words
# Protocol: (§1) To this end, established cells of a human myeloid leukemia (HL-60) in RPMI medium, and the above-mentioned HepG2 cells in Dulbecco MEM, respectively, were incubated for two days using varying concentrations of compounds, and the proliferation rate of the cells was subsequently determined. The data were used to determine the concentration of compounds resulting in 50% inhibition of proliferation (CD50).
# [2] = system: HBV; test: Inhibition of HBV-replication in HepG2 2.2.15 cells (extracellular HBV DNA, PCR); type: cell-based, hepatitis B virus; settings: read-out: EC50, concentration required for 50% reduction of HBV DNA in the medium of the cells
# Protocol: The antiviral efficacy of the compounds of the invention was investigated on HepG2 2.2.15 cells, a human hepatoblastoma cell line which has the replication-competent HBV genome stably integrated therein and produces infectious progeny viruses in a productive manner (Sells et al., Proc Natl Acad Sci USA 1987, 84: 1005-1009).
# The above cells were cultured under standardized conditions as specified by Korba and Gerin, and the amount of extracellular viral DNA was determined (Korba et al., Antiviral Res 1992, 19: 55-70).
# Following passaging, the HepG2 2.2.15 cells were seeded at a density of about 60% in 12-well plates and cultured to confluence in 10% FBS Dulbecco MEM. Thereafter, the medium was changed to 2% FBS, and the cells were cultured for another 24 hours.
# After another change of medium, the cells were treated with varying concentrations of compounds according to the invention. Every 24 hours the compounds were re-added together with the medium. On the 6th day of treatment, the cell supernatants were centrifuged off and stored at −20° C. until analysis of the HBV DNA was effected.
# Following treatment of the culture supernatants with proteinase K, the extracellular viral DNA was amplified by means of PCR using the following primers (forward: 5′-CTCCAGTTCAGGAACAGTAAACCC-3′(SEQ ID NO. 1); reverse: 5′-TTGTGAGCTCAGAAAGGCCTTGTAAGTTGGCG-3′(SEQ ID NO. 2). The PCR products were separated on 1% agarose, stained with ethidium bromide and quantified using a Fluor-S™ Multimager (Biorad).
# For calibration of the PCR reaction, serial dilutions of the pUC19 HBV and pTHBV plasmids with known genome equivalents (GE) were used, resulting in a lower detection limit of about 10^3 GE and a linearity between 10^3 and 10^5 GE.
# [3] = system: HepG2-cells; test: Cytotoxicity, inhibition of proliferation of HepG2 cells; type: cell-based, human; settings: for CD50, concentration producing 50% inhibition of cell proliferation: two days incubation; for antiproliferative activity: in words
# Protocol: as §1
# [4] = system: HIV; test: Inhibition of HIV replication; type: cell-based; settings: read-out: EC50 against HIV replication
# [5] = target: T1, HBV DNA polymerase (Hepatitis B virus genotype D subtype ayw, UniProt P03156); test: Inhibition of endogenous HBV DNA polymerase by nucleoside triphosphates; type: biochemical; settings: virus particles from patient serum, 3H-dCTP, 1 h 37° C., read-out: IC50, 50% inhibition of the HBV DNA polymerase activity
# T1 construct: the endogenous HBV DNA polymerase activity; from tissue; host or cells: serum of patients with untreated hepatitis B virus infection; virus particles purified by ultracentrifugation and lysed
# Protocol: To determine the endogenous HBV DNA polymerase activity, about 100 ml of serum from patients with untreated hepatitis B virus infections from Charité, Berlin, (>10^7 HBV particles/ml), was centrifuged at 3000 rpm. Virus particles of the cleared serum were sedimented in a Beckman SW28 rotor at 25,000 rpm, 60 min. The virus pellet was suspended in 7 ml of TKM buffer (50 mM Tris-HCl, pH 7.5, 50 mM KCl, 5 mM MgCl2), layered over a step gradient of 10 ml each of 0.3 M, 0.6 M, 0.9 M saccharose in TKM buffer and centrifuged at 25,000 rpm for 20 hours.
# The purified virus pellet was suspended in 250 μl TKM buffer, lysed by ultrasound, divided in aliquots and frozen at −80° C. (Davies et al., Antiviral Res 1996, 30: 133-145).
# The HBV DNA polymerase assay contained in 30 μl about 2-4×10^8 purified virus particles (lysed beforehand additionally in 6% β-mercaptoethanol, 10% Igepal for 15 min at room temperature), 42 mM Tris-HCl, (pH 7.5), 34 mM MgCl2, 340 mM KCl, 22 mM β-mer-captoethanol, 0.4% Igepal, 70 μM TTP, dATP, dGTP and 1 μCi ^3HdCTP (=0.7 μM dCTP) (Matthes et al., Antimicrob Agents & Chemother 1991, 35: 1254-1257) and varying concentrations of β-L-N4-hydroxycytosine nucleoside triphosphates as inhibitors.
# Following a one-hour incubation at 37° C., 20 μl of the assay volume was placed on paper filter, washed 5 times with 5% trichloroacetic acid and 0.1% Na pyrophosphate, and the ^3H-dCMP incorporated in the HBV DNA was subsequently measured in a Liquid Scintillation Counter.
# Using the concentration-dependent inhibition curves of HBV DNA synthesis, the concentration of β-L-N4-hydroxycytosine nucleoside triphosphates resulting in 50% inhibition of the HBV DNA polymerase activity was determined.
# [6] = system: HBV; settings: treatment of HBV infections; cited from earlier work
# [7] = HepG2 2.2.15 cells, 6 days incubation, extracellular HBV DNA
# T1 sequence (P03156 whole entry): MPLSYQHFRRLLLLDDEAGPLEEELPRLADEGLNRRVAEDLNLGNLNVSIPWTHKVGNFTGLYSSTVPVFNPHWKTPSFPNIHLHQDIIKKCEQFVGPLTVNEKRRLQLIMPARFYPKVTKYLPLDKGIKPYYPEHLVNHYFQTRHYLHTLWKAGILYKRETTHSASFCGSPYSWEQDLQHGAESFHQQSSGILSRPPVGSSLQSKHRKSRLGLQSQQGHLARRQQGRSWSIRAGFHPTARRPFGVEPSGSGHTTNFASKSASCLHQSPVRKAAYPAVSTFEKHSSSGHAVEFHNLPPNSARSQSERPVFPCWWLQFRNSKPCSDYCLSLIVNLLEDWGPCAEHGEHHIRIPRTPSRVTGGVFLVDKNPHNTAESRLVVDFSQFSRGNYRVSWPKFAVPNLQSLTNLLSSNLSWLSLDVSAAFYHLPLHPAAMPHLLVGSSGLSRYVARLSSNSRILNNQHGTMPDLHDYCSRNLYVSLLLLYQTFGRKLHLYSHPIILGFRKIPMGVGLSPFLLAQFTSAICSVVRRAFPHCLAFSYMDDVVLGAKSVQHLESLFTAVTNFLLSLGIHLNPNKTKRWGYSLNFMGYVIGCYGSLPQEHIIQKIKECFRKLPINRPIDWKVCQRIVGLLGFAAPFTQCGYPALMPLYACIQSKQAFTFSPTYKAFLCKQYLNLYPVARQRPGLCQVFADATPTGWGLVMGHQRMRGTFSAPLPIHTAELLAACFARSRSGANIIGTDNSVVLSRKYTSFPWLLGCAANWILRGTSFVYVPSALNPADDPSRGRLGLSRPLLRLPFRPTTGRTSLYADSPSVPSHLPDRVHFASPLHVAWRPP
compound,measurement,setting,value
"Nc1ccn([C@@H]2CS[C@H](CO)O2)c(=O)n1 [3TC (lamivudine), β-L-2′,3′-dideoxy-3′-thiacytidine, reference compound]","CD50, concentration producing 50% inhibition of cell proliferation",[1],2000 µM
same,EC50,"[2]; Hepatitis B virus, HepG2 2.2.15, 144 h",100 nM
same,"CD50, concentration producing 50% inhibition of cell proliferation",[3],1900 µM
"O=c1nc(NO)ccn1[C@H]1CS[C@@H](CO)O1 [Hy3TC, β-L-2′,3′-dideoxy-3′-thia-N4-hydroxycytidine]","CD50, concentration producing 50% inhibition of cell proliferation",[1],1450 µM
same,EC50,[2]; [7],500 nM
same,EC50,[4],> 25000 nM
same,"CD50, concentration producing 50% inhibition of cell proliferation",[3],1230 µM
"O=c1nc(NO)c(F)cn1[C@H]1CS[C@@H](CO)O1 [HyFTC, β-L-2′,3′-dideoxy-3′-thia-5-fluoro-N4-hydroxycytidine]","CD50, concentration producing 50% inhibition of cell proliferation",[1],1100 µM
same,EC50,[2]; [7],300 nM
same,"CD50, concentration producing 50% inhibition of cell proliferation",[3],975 µM
"Nc1nc(=O)n([C@@H]2C[C@@H](O)[C@H](CO)O2)cc1F [L-FCdR, β-L-5-fluorodeoxycytidine, reference compound]",EC50,[2]; [7],1200 nM
"O=c1nc(NO)ccn1[C@@H]1C[C@@H](F)[C@H](CO)O1 [L-FHyCdR, β-L-3′-fluoro-2′,3′-dideoxy-N4-hydroxycytidine]","CD50, concentration producing 50% inhibition of cell proliferation",[1],4400 µM
same,"CD50, concentration producing 50% inhibition of cell proliferation",[3],820 µM
"O=c1nc(NO)ccn1[C@@H]1C[C@@H](O)[C@H](CO)O1 [L-HyCdR, β-L-N4-hydroxydeoxycytidine]","CD50, concentration producing 50% inhibition of cell proliferation",[1],460 µM
same,EC50,[2]; [7],3000 nM
same,"CD50, concentration producing 50% inhibition of cell proliferation",[3],545 µM
"O=c1nc(NO)c(F)cn1[C@@H]1C[C@@H](O)[C@H](CO)O1 [L-HyFCdR, β-L-5-fluoro-N4-hydroxydeoxycytidine]","CD50, concentration producing 50% inhibition of cell proliferation",[1],1370 µM
same,EC50,[2]; [7],4500 nM
same,"CD50, concentration producing 50% inhibition of cell proliferation",[3],920 µM
"O=c1nc(NO)ccn1[C@H]1O[C@@H](CO)C=C1F [L-HyFddeC, β-L-2′,3′-didehydro-2′,3′-dideoxy-2′-fluoro-N4-hydroxycytidine]",antiproliferative activity,[1],lost the antiproliferative activity
same,"CD50, concentration producing 50% inhibition of cell proliferation",[1],1130 µM
same,EC50,[2]; [7],< 100 nM
same,antiproliferative activity,[3],lost the antiproliferative activity
same,"CD50, concentration producing 50% inhibition of cell proliferation",[3],1370 µM
"Cc1cn([C@@H]2C[C@@H](O)[C@H](CO)O2)c(=O)nc1NO [L-HyMetCdR, β-L-5-methyl-N4-hydroxydeoxycytidine]","CD50, concentration producing 50% inhibition of cell proliferation",[1],600 µM
same,"CD50, concentration producing 50% inhibition of cell proliferation",[3],490 µM
"O=c1nc(NO)ccn1[C@@H]1CC[C@H](CO)O1 [L-HyddC, β-L-2′,3′-dideoxy-N4-hydroxycytidine]",antiproliferative activity,[1],lost the antiproliferative activity
same,"CD50, concentration producing 50% inhibition of cell proliferation",[1],1600 µM
same,antiproliferative activity,[3],lost the antiproliferative activity
same,"CD50, concentration producing 50% inhibition of cell proliferation",[3],2250 µM
"O=c1nc(NO)c(F)cn1[C@@H]1CC[C@H](CO)O1 [L-HyddFC, β-L-2′,3′-dideoxy-5-fluoro-N4-hydroxycytidine]","CD50, concentration producing 50% inhibition of cell proliferation",[1],1860 µM
same,EC50,[2]; [7],350 nM
same,"CD50, concentration producing 50% inhibition of cell proliferation",[3],1580 µM
"O=c1nc(NO)ccn1[C@@H]1C=C[C@H](CO)O1 [L-HyddeC, β-L-2′,3′-didehydro-2′,3′-dideoxy-N4-hydroxycytidine]","CD50, concentration producing 50% inhibition of cell proliferation",[1],>3500 µM
same,EC50,[2]; [7],50 nM
same,"CD50, concentration producing 50% inhibition of cell proliferation",[3],>5000 µM
"O=c1nc(NO)c(F)cn1[C@@H]1C=C[C@H](CO)O1 [L-HyddeFC, β-L-2′,3′-didehydro-2′,3′-dideoxy-5-fluoro-N4-hydroxycytidine]",antiproliferative activity,[1],lost the antiproliferative activity
same,EC50,[2]; [7],< 100 nM
same,antiproliferative activity,[3],lost the antiproliferative activity
"[N-]=[N+]=N[C@@H]1C[C@@H](n2ccc(NO)nc2=O)O[C@H]1CO [L-N3HyCdR, β-L-3′-azido-2′,3′-dideoxy-N4-hydroxycytidine]","CD50, concentration producing 50% inhibition of cell proliferation",[1],2000 µM
same,"CD50, concentration producing 50% inhibition of cell proliferation",[3],1160 µM
"Cc1cn([C@@H]2C[C@@H](O)[C@H](CO)O2)c(=O)[nH]c1=O [L-TdR, β-L-thymidine, reference compound]",EC50,"[2]; Hepatitis B virus, 144 h, HepG2 2.2.15 cells, 6 days incubation, extracellular HBV DNA",300 nM
"Nc1ccn([C@@H]2CC[C@H](CO)O2)c(=O)n1 [L-ddC, β-L-2′,3′-dideoxycytidine, reference compound]",EC50,[2]; [7],250 nM
O=c1nc(NO)ccn1[C@@H]1CS[C@H](COP(=O)(O)OP(=O)(O)OP(=O)(O)O)O1 [Triphosphate of L-Hy3TC],IC50,[5],150 to 650 nM and 650 nM
O=c1nc(NO)ccn1[C@@H]1C[C@@H](O)[C@H](COP(=O)(O)OP(=O)(O)OP(=O)(O)O)O1 [Triphosphate of L-HyCdR],IC50,[5],6000 nM
Cc1cn([C@@H]2C[C@@H](O)[C@H](COP(=O)(O)OP(=O)(O)OP(=O)(O)O)O2)c(=O)nc1NO [Triphosphate of L-HyMetCdR],IC50,[5],4000 nM
O=c1nc(NO)ccn1[C@@H]1CC[C@H](COP(=O)(O)OP(=O)(O)OP(=O)(O)O)O1 [Triphosphate of L-HyddC],IC50,[5],150 to 650 nM and 550 nM
O=c1nc(NO)ccn1[C@@H]1C=C[C@H](COP(=O)(O)OP(=O)(O)OP(=O)(O)O)O1 [Triphosphate of L-HyddeC],IC50,[5],150 to 650 nM and 280 nM
α-interferon,share of the patients in whom it is effective,[6],about 33%
